Key:
Type in all cases: biochemical
His6-PYR1 / biotin-PP2C = biological target: T1, His6-PYR1 / biotin-PP2C (Arabidopsis thaliana, UniProt O49686); experiment: AlphaScreen luminescence proximity assay, PYR1-PP2C interaction; settings: 100 nM His6-PYR1, 100 nM biotin-PP2C, 100 μM agonist; normalized against a pyrabactin control
T1 construct: made in house; host or cells: E. coli is stated for PYL1, PYL2 and the PP2Cs, not expressly for PYR1
T1 sequence (O49686 1-191): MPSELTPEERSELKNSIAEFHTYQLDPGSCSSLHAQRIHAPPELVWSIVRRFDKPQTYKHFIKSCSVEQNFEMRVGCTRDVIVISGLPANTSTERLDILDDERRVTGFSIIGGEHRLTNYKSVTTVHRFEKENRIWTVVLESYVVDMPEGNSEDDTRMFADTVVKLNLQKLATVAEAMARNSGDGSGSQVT
Method: (§1) Mutant proteins were expressed as H6GST-fusion proteins and purified by glutathione sepharose chromatography. Protein-protein interactions were determined by luminescence proximity AlphaScreen assay. Biotinylated PP2C proteins for the luminescence proximity assay were generated by in vivo biotinylation of avitag-PP2C fusion proteins. PP2C phosphatase activity was measured by phosphate release from a SnRK2.6 phosphoprotein.
(§2) Interactions between PYR/PYL and PP2Cs were assessed by luminescence-proximity AlphaScreen technology (Perkin Elmer). Briefly, biotinylated PP2Cs were attached to streptavidin-coated donor beads, and H6-tagged PYR/PYL receptors were attached to nickel-chelated acceptor beads. The donor and acceptor beads were brought into proximity by the interactions between PYR/PYLs and PP2Cs, which were measured with and without ligands. When excited by a laser beam of 680 nm, the donor beam emits singlet oxygen that activates thioxene derivatives in the acceptor beads, which releases photons of 520-620 nm as the binding signal. The experiments were conducted with 100 nM of PP2Cs and PYR/PYL proteins in the presence of 5 ug/ml donor and acceptor beads in a buffer of 50 mM MOPS, pH7.4, 50 mM NaF, […], and 0.1 mg/ml bovine serum albumin. The results were based on an average of three experiments with standard errors typically less than 10% of the measurements.
(§3) Values were determined in different experiments and normalized against a pyrabactin control. Blank spaces mean no experimental data is available. Key (photon counts (binding signal units) in Alphascreen luminescence proximity assay): “+++ is >75,000; ++ is 25,000−75,000; + is <25,000.

His6-PYL2 / biotin-PP2C = biological target: T2, His6-PYL2 / biotin-PP2C (Arabidopsis thaliana, UniProt O80992); experiment: AlphaScreen luminescence proximity assay, PYL2-PP2C interaction; settings: 100 nM His6-PYL2, 100 nM biotin-PP2C, 100 μM agonist; normalized against a pyrabactin control
T2 construct: PYL2 (residues 14-188), and HAB1 (residues 172-511) were prepared as recombinant proteins in E. coli; made in house; host or cells: E. coli
T2 sequence (O80992 14-188): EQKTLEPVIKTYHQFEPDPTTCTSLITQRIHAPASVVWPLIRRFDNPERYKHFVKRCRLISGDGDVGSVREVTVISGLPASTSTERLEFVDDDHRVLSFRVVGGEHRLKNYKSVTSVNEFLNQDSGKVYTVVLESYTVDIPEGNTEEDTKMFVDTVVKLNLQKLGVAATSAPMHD
Method: as §1, §2, §3

His6-PYL3 / biotin-PP2C = biological target: T3, His6-PYL3 / biotin-PP2C (Arabidopsis thaliana, UniProt Q9SSM7); experiment: AlphaScreen luminescence proximity assay, PYL3-PP2C interaction; settings: 100 nM His6-PYL3, 100 nM biotin-PP2C, 100 μM agonist; normalized against a pyrabactin control
T3 construct: made in house; host or cells: not expressly stated for PYL3
T3 sequence (Q9SSM7 1-209): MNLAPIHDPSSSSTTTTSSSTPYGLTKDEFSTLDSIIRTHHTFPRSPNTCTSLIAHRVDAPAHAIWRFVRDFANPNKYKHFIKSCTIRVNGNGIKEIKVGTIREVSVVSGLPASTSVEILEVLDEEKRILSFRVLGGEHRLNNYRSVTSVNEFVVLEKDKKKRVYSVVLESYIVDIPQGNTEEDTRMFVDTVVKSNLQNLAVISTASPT
Method: as §1, §2, §3

His6-PYL1 / biotin-PP2C = biological target: T4, His6-PYL1 / biotin-PP2C (Arabidopsis thaliana, UniProt Q8VZS8); experiment: AlphaScreen luminescence proximity assay, PYL1-PP2C interaction; settings: 100 nM His6-PYL1, 100 nM biotin-PP2C, 100 μM agonist; normalized against a pyrabactin control
T4 construct: PYL1 (residues 36-211), PYL2 (residues 14-188), and HAB1 (residues 172-511) were prepared as recombinant proteins in E. coli; made in house; host or cells: E. coli
T4 sequence (Q8VZS8 36-211): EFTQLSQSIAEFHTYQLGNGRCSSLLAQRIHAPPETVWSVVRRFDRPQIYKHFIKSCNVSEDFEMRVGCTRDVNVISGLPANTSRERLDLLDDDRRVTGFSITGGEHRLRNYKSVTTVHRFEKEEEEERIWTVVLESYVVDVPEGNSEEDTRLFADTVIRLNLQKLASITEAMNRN
Method: as §1, §2, §3

Stimulation of the interaction between PYR1 and PP2C (binding signal) (His6-PYR1 / biotin-PP2C) | Stimulation of the interaction between PYL2 and PP2C (binding signal) (His6-PYL2 / biotin-PP2C) | Stimulation of the interaction between PYL3 and PP2C (binding signal) (His6-PYL3 / biotin-PP2C) | Stimulation of the interaction between PYL1 and PP2C (binding signal) (His6-PYL1 / biotin-PP2C) | SMILES
+ (+ is <25,000) | + (+ is <25,000) | + (+ is <25,000) |  | CCCCOc1cccc(C(=O)NC(=S)Nc2ccc(S(N)(=O)=O)cc2)c1 [Compound 9]
+ (+ is <25,000) | + (+ is <25,000) | + (+ is <25,000) |  | CC1(C)CC(=O)C(/C=N/CCc2ccc(S(N)(=O)=O)cc2)=C(O)C1 [Compound 10]
+++ (+++ is >75,000) |  | +++ (+++ is >75,000) |  | O=S(=O)(NC[C@@H]1CCCO1)c1ccc(Br)c2ccccc12 [Compound 12]
+ (+ is <25,000) |  |  |  | CCCN(CCC)C(=O)[C@@H](CCC(=O)O)NS(=O)(=O)c1ccc(C)cc1 [Compound 13]
+ (+ is <25,000) | + (+ is <25,000) | + (+ is <25,000) |  | Cc1ccc(C(=O)O)cc1NC(=S)NC(=O)c1ccccc1Cl [Compound 14]
+ (+ is <25,000) | ++ (++ is 25,000−75,000) | ++ (++ is 25,000−75,000) | + (+ is <25,000) | CC(=O)c1cccc(N/C=C/C(=O)c2ccc(Cl)c(Cl)c2)c1 [Compound 15]
